Target: PASK (Homo sapiens (Human), UniProt Q96RG2)
Experiment: PAS Kinase FRET Assay
Assay type: biochemical
Settings: TR-FRET assay; read-out: IC50 Kinase Domain
Text: The aim of the FRET assay is to determine the inhibition potential of test compounds on targeted kinase. This assay platform provides a homogenous screening method for measuring kinase activity by quantitating the amount of phospho-substrate in solution following a kinase reaction.
In the presence of kinase and ATP, the Ulight-peptide is phosphorylated and captured by an anti-phospho-substrate antibody, which brings the Eu chelate donor and Ulight acceptor dyes into close proximity. Upon excitation at 340 nm, the Eu chelate transfers its energy to the Ulight dye, resulting in a fluorescent light emission at 665 nm
Titration of kinase at 1 mM ATP was achieved via the following protocol. After making serial three-fold dilutions of PASK (Invitrogen) in reaction buffer across the plate; 5 μl of kinase dilution and 5 μl substrate/ATP mix were added to the wells of the white Optiplate-384 (PerkinElmer). The contents of the plate were and incubated at RT for 1 h. The reaction was stopped by adding 5 μl of stop solution to each test well followed by mixing and incubation at RT for 10 minutes. 5 μl of detection mix (detection antibody diluted in detection buffer) was added; the contents of the plate were mixed and then incubated in the dark for 1 hour at RT. The signal was recorded at TR-FRET mode (665 nm/615 nm). The results were graphed to calculate the EC50.
Titration of ATP at the EC50 concentration of kinase to determine ATP Km, app. was performed using the following method. After making serial dilutions of ATP (Invitrogen), 5 μl of ATP dilution and 5 μl substrate/kinase mix were added to the wells of the white Optiplate-384 (PerkinElmer). The contents of the plate were and incubated at RT for 1 h. The reaction was stopped by adding 5 μl of stop solution to each test well followed by mixing and incubation at RT for 10 minutes. 5 μl of detection mix (detection antibody diluted in detection buffer) was added; the contents of the plate were mixed and then incubated in the dark for 1 hour at RT. The signal was recorded at TR-FRET mode (665 nm/615 nm). The results were graphed to calculate the EC50 as the ATP Km, app.
Compound screening was done via the following method. 10 mM stock solution of test compound in DMSO was prepared by dissolving test compound in DMSO at RT for 1 hour, and then sonicating at 100% output for 8 minutes. If compound is not soluble under this condition, it was diluted to 3 mM. Kinase reaction buffer was prepared containing 10 mM MgCl2, 50 mM HEPES, 1 mM EGTA, 0.01% TWEEN-20, 2 mM DTT. Serial dilutions of the test compounds were prepared at 4×final assay concentrations using Freedom EVO200® dispensing system as follows: 12×10^−5 M, 4×10^−5 M, 1.33×10^−5 M, 4.44×10^−6 M, 1.48×10^−6 M, 4.92×10^−7 M, 1.65×10^−7 M, […], 1.82×10^−8M, 6.09×10^−9, 2.03×10^−9 M. Test compounds (2.5 μl at 4× the final assay concentration) was added to wells using Freedom EVO200® dispensing system. As a positive control, 2.5 μl of positive compound was added to assay wells, and 2.5 μl of DMSO to assay wells as vehicle control. Kinase solution was prepared in reaction buffer at 2×final assay concentration. Kinase solution (5 μl) was added to each well of the assay plate. The substrate and ATP solution was prepared in kinase reaction buffer at 4×final assay concentration. The kinase reaction was started by adding 2.5 μl of substrate+ATP mix solution to each well of the assay plate. The plate is mixed on a plate shaker; then covered and allowed to react for 2 hours in the dark at 25° C. without shaking. The reaction was stopped by adding 5 μl of stop solution to each test well followed by mixing and incubation at RT for 10 minutes in the dark. 5 μl of detection mix (detection antibody diluted in detection buffer) was added; the contents of the plate were mixed and then incubated in the dark for 1 hour at RT. The signal was recorded at TR-FRET mode (665 nm/615 nm).

PASK, sequence (Q96RG2 999-1251): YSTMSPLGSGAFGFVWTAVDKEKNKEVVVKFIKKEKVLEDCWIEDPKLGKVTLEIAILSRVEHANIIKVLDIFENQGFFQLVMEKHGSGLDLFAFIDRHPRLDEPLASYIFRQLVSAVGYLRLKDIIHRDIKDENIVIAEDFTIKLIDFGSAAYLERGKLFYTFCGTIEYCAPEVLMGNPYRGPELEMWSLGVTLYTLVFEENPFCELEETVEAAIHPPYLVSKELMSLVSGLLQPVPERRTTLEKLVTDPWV

IC50 [µM]	SMILES
≤ 10	O=c1cc(-c2ccc3[nH]ncc3c2)[nH]c2c(-c3ccccn3)c(O)nn12 [Example 187, 2-Hydroxy-5-(1H-indazol-5-yl)-3-(pyridin-2-yl)pyrazolo[1,5-a]pyrimidin-7(4H)-one]
≤ 10	Cc1n[nH]c2ccc(-c3cc(=O)n4nc(N)c(-c5ccccn5)c4[nH]3)cc12 [Example 188, 2-Amino-5-(3-methyl-1H-indazol-5-yl)-3-(pyridin-2-yl)pyrazolo[1,5-a]pyrimidin-7(4H)-one]
≤ 10	Cc1n[nH]c2ccc(-c3cc(=O)n4ncc(-c5ccccn5)c4[nH]3)cc12 [Example 189, 5-(3-Methyl-1H-indazol-5-yl)-3-(pyridin-2-yl)pyrazolo[1,5-a]pyrimidin-7(4H)-one]
≤ 10	CCc1nn2c(=O)cc(-c3ccc(Cl)cc3)[nH]c2c1-c1ccccn1 [Example 190, 5-(4-Chlorophenyl)-2-ethyl-3-(pyridin-2-yl)pyrazolo[1,5-a]pyrimidin-7(4H)-one]
≤ 10	O=c1cc(-c2ccc3[nH]nnc3c2)[nH]c2c(-c3ccccn3)cnn12 [Example 192, 5-(1H-Benzo[d][1,2,3]triazol-5-yl)-3-(pyridin-2-yl)pyrazolo[1,5-a]pyrimidin-7(4H)-one]
≤ 10	Cn1nnc2cc(-c3cc(=O)n4nc(N)c(-c5ccccn5)c4[nH]3)ccc21 [Example 194, 2-Amino-5-(1-methyl-1H-benzo[d][1,2,3]triazol-5-yl)-3-(pyridin-2-yl)pyrazolo[1,5-a]pyrimidin-7(4H)-one]
≤ 10	Cn1nnc2cc(-c3cc(=O)n4ncc(-c5ccccn5)c4[nH]3)ccc21 [Example 195, 5-(1-Methyl-1H-benzo[d][1,2,3]triazol-5-yl)-3-(pyridin-2-yl)pyrazolo[1,5-a]pyrimidin-7(4H)-one]
≤ 10	CCc1nn2c(=O)cc(-c3ccc4c(cnn4C)c3)[nH]c2c1-c1ccccn1 [Example 196, 2-Ethyl-5-(1-methyl-1H-indazol-5-yl)-3-(pyridin-2-yl)pyrazolo[1,5-a]pyrimidin-7(4H)-one]
≤ 10	Cc1nn2c(=O)cc(-c3ccc4[nH]nnc4c3)[nH]c2c1-c1ccccn1 [Example 200, 5-(1H-Benzo[d][1,2,3]triazol-5-yl)-2-methyl-3-(pyridin-2-yl)pyrazolo[1,5-a]pyrimidin-7(4H)-one]
≤ 10	CC(=O)Nc1nn2c(=O)cc(-c3ccc4[nH]nnc4c3)[nH]c2c1-c1ccccn1 [Example 202, N-(5-(1H-Benzo[d][1,2,3]triazol-5-yl)-7-oxo-3-(pyridin-2-yl)-4,7-dihydropyrazolo[1,5-a]pyrimidin-2-yl)acetamide]
≤ 10	CCC(=O)Nc1nn2c(=O)cc(-c3ccc4nn[nH]c4c3)[nH]c2c1-c1ccccn1 [Example 203, N-(5-(1H-Benzo[d][1,2,3]triazol-6-yl)-7-oxo-3-(pyridin-2-yl)-4,7-dihydropyrazolo[1,5-a]pyrimidin-2-yl)propionamide]
≤ 10	CCn1ncc2cc(-c3cc(=O)n4nc(NC(C)=O)c(-c5ccccn5)c4[nH]3)ccc21 [Example 204, N-(5-(1-Ethyl-1H-indazol-5-yl)-7-oxo-3-(pyridin-2-yl)-4,7-dihydropyrazolo[1,5-a]pyrimidin-2-yl)acetamide]
≤ 10	CCc1nn2c(=O)cc(-c3ccc4[nH]nnc4c3)[nH]c2c1-c1ccccc1 [Example 206, 5-(1H-Benzo[d][1,2,3]triazol-5-yl)-2-ethyl-3-phenylpyrazolo[1,5-a]pyrimidin-7(4H)-one]
≤ 10	O=c1cc(-c2ccc3[nH]nnc3c2)[nH]c2c(Cc3ccccc3)cnn12 [Example 207, 5-(1H-Benzo[d][1,2,3]triazol-5-yl)-3-benzylpyrazolo[1,5-a]pyrimidin-7(4H)-one]
≤ 10	Nc1nn2c(=O)cc(-c3ccc4[nH]nnc4c3)[nH]c2c1Cc1ccccc1 [Example 208, 2-Amino-5-(1H-benzo[d][1,2,3]triazol-5-yl)-3-benzylpyrazolo[1,5-a]pyrimidin-7(4H)-one]
≤ 10	O=c1cc(-c2ccc3[nH]nnc3c2)[nH]c2c(Cc3ccccc3)c(O)nn12 [Example 209, 5-(1H-Benzo[d][1,2,3]triazol-5-yl)-3-benzyl-2-hydroxypyrazolo[1,5-a]pyrimidin-7(4H)-one]
≤ 10	O=c1cc(-c2ccc3c(c2)OCO3)[nH]c2c(Cc3ccccn3)cnn12 [Example 211, 5-(Benzo[d][1,3]dioxol-5-yl)-3-(pyridin-2-ylmethyl)-pyrazolo[1,5-a]pyrimidin-7(4H)-one]
≤ 10	Cc1nn2c(=O)cc(-c3ccc4[nH]nnc4c3)[nH]c2c1-c1ccccc1 [Example 212, 5-(1H-Benzo[d][1,2,3]triazol-5-yl)-2-methyl-3-phenylpyrazolo[1,5-a]pyrimidin-7(4H)-one]
≤ 10	O=c1cc(-c2ccc3[nH]nnc3c2)[nH]c2c(-c3ccccc3)c(O)nn12 [Example 215, 5-(1H-Benzo[d][1,2,3]triazol-5-yl)-2-hydroxy-3-phenylpyrazolo[1,5-a]pyrimidin-7(4H)-one]
≤ 10	Cc1nn2c(=O)cc(-c3ccc4[nH]nnc4c3)[nH]c2c1-c1ccc(Cl)cc1 [Example 216, 5-(1H-Benzo[d][1,2,3]triazol-5-yl)-3-(4-chlorophenyl)-2-methylpyrazolo[1,5-a]pyrimidin-7(4H)-one]
≤ 10	Cc1nn2c(=O)cc(-c3ccc4[nH]ncc4c3)[nH]c2c1-c1ccccn1 [Example 219, 5-(1H-Indazol-5-yl)-2-methyl-3-(pyridin-2-yl)pyrazolo[1,5-a]pyrimidin-7(4H)-one]
≤ 10	Cc1nn2c(=O)cc(-c3ccc4[nH]ncc4c3)[nH]c2c1-c1ccc(Cl)cc1 [Example 220, 3-(4-Chlorophenyl)-5-(1H-indazol-5-yl)-2-methylpyrazolo[1,5-a]pyrimidin-7(4H)-one]
≤ 10	Nc1nn2c(=O)cc(-c3ccc4[nH]ncc4c3)[nH]c2c1-c1ccc(Cl)cc1 [Example 221, 2-Amino-3-(4-chlorophenyl)-5-(1H-indazol-5-yl)pyrazolo[1,5-a]pyrimidin-7(4H)-one]
≤ 10	O=c1cc(-c2ccc3[nH]ncc3c2)[nH]c2c(-c3ccc(Cl)cc3)c(O)nn12 [Example 222, 3-(4-Chlorophenyl)-2-hydroxy-5-(1H-indazol-5-yl)pyrazolo[1,5-a]pyrimidin-7(4H)-one]
≤ 10	CCCNC(=O)c1c(N)nn2c(=O)cc(-c3ccc4c(c3)OCCO4)[nH]c12 [Example 226, 2-Amino-5-(2,3-dihydrobenzo[b][1,4]dioxin-6-yl)-7-oxo-N-propyl-4,7-dihydropyrazolo[1,5-a]pyrimidine-3-carboxamide]
≤ 10	CCCNC(=O)c1c(O)nn2c(=O)cc(-c3ccc4[nH]nnc4c3)[nH]c12 [Example 228, 5-(1H-Benzo[d][1,2,3]triazol-5-yl)-2-hydroxy-7-oxo-N-propyl-4,7-dihydropyrazolo[1,5-a]pyrimidine-3-carboxamide]
≤ 10	Cc1c(-c2cc(=O)n3ncc(-c4ccccn4)c3[nH]2)ccc2c1OCO2 [Example 229, 5-(4-Methylbenzo[d][1,3]dioxol-5-yl)-3-(pyridin-2-yl)pyrazolo[1,5-a]pyrimidin-7(4H)-one]
≤ 10	Cc1c(-c2cc(=O)n3nc(N)c(-c4ccccn4)c3[nH]2)ccc2c1OCO2 [Example 230, 2-Amino-5-(4-methylbenzo[d][1,3]dioxol-5-yl)-3-(pyridin-2-yl)pyrazolo[1,5-a]pyrimidin-7(4H)-one]
≤ 10	Cc1c(-c2cc(=O)n3nc(O)c(-c4ccccn4)c3[nH]2)ccc2c1OCO2 [Example 231, 2-Hydroxy-5-(4-methylbenzo[d][1,3]dioxol-5-yl)-3-(pyridin-2-yl)pyrazolo[1,5-a]pyrimidin-7(4H)-one]
